This note sets out measurements from EP0061711A1, “10B-Carboxyamino boranes, process for their preparation and their use as medicaments in the neutron-capture therapy” (priority 1981, dated 1982).

Data set [1] is described as follows: acute toxicity (DL50) in the mouse, i.p. As to conditions: in vivo, ip, Maus.
A further data set deals with gesunden Maus. The experiment in a line: incorporation of 125I-deoxyuridine in the healthy mouse. It counts as in vivo. As to conditions: gesunde Maus.
For the next data set, the system named is Sarkom 180 der Maus. The data set can be described thus: incorporation of 125I-deoxyuridine into sarcoma 180 of the mouse. Conditions: in Sarkom 180 der Maus. It counts as in vivo.
Another data set concerns Sarkom 180. The experiment in a line: sarcoma 180 in NMRI mice: tumour size and survival, alone or with gamma rays or thermal neutrons. It counts as in vivo, NMRI-Mäuse. As to conditions: for überlebende Tiere: 40 Tage after start of treatment. An excerpt: Die geringe Toxizität der erfindungsgemäß verwendeten Substanz ermöglicht eine so hohe Dosierung, daß sowohl eine begrenzte Eigenwirkung zum Tragen kommt als auch insbesondere eine ausreichende Erhöhung der ^10Bor-Konzentration in den erkrankten Zellen erreicht wird. So wurde festgestellt, daß die Toxizität bei der Maus i.p. eine DL50 um 2000 m^g/k^g ergibt. Pharmakologisch wurde festgestellt, daß N-Trimethyl-^10B-carboxyaminoboran den Einbau von 125 Jod -^desoxyuridin bei der gesunden Maus senkt. Weiterhin senkt es den Einbau von ^125Jod -desoxyuridin in das Sarkom 180 der Maus.
Besonders eindrucksvoll ist die Veränderung der Überlebenszeiten der Sarkom 180 tragenden NMRI-Mäuse. Während 40 Tage nach Beginn der Behandlung von den unbehandelten und den nur mit Neutronen behandelten Tieren ca. 90% am Tumor gestorben sind, überleben zu diesem Zeitpunkt ca. 40% der nur mit N-Trimethyl-^10B-carboxy-aminoboran und ca. 75 % der mit dieser Substanz und Neutronen behandelten Tiere.
Ein Vergleich mit Natriumpentaborat und Neutronen zeigt, daß nur 20 bis 30 % der Sarkom-Tiere überleben.
(§1) Diese pharmakologischen Befunde wurden zunächst noch mit einem N-Trimethyl- B-carboxy-aminoboran erhalten, welches nur 20 % ^10Bor enthielt. Durch Steigerung des ^10Bor-Gehalts auf 80 bis 90% erhöht sich die Antitumorwirkung durch Neutroneneinfang um das. 4 bis 5-fache: • C-57 BL/6j Mäuse mit Adenocarcinom EO 771 werden in drei Gruppen aufgeteilt: • Gruppe 1 dient als Kontrolle Gruppe 2 wird 6 Minuten mit thermischen Neutronen bestrahlt Gruppe 3 erhält 10 mg N-Trimethyl-^10B-carboxyaminoboran intraperitonal (i.p.) und wird nach 6 Stunden - dem Zeitpunkt der optimalen Anreicherung im Tumorgewebe - für 6 Minuten mit thermischen Neutronen bestrahlt.

A further data set concerns Adenocarcinom EO 771. The experiment in a line: adenocarcinoma EO 771 in C-57 BL/6j mice, neutron capture therapy. It counts as in vivo, C-57 BL/6j Mäuse. Conditions: 10 mg i.p., after 6 Stunden 6 Minuten thermische Neutronen. The method, then: as §1
Data set [2] is described as follows: boron accumulation in tumour tissue versus blood. The class given is in vivo.
Another data set can be described thus: water solubility. The class given is physicochemical. Conditions: for intravenous application.
Data set [3] can be described thus: therapeutic results in combination with neutrons (model not stated). Conditions: in Verbindung mit Neutronen, compared with N-Trimethyl-10B-carboxyaminoboran.
Data set [4] can be described thus: toxicity compared with the compound of the invention (species not stated).

In the case of `C[N+](C)(C)[10BH2-]C(=O)O` [N-Trimethyl-^10B-carboxyaminoboran], in data set [1], the LD50 is about 2000 mg/kg. Also, the “Einbau von 125Jod -desoxyuridin” value in the data set on gesunden Maus and with Sarkom 180 der Maus was “senkt” throughout. Moreover, the “überlebende Tiere” value with Sarkom 180 (substance alone) is on record as “ca. 40%”; in the data set on Sarkom 180 (substance and Neutronen) it was “ca. 75%”. Besides, the Tumorgröße entry is recorded as “Verkleinerung des Tumors” with Sarkom 180 (Sarkom 180 der Maus, substance alone) and “nimmt der Tumor in Gruppe 3 nach der kombinierten Behandlung an Größe ab” with Adenocarcinom EO 771. In addition, the Tumorwachstum entry in the data set with Sarkom 180 (combination with γ-Strahlen) is “positiv beeinflußt”. In addition, the Tumorvolumen result in the data set on Sarkom 180 (simultaneous treatment with thermischen Neutronen) is recorded as “wesentlich stärker verkleinert als durch die Einzelkomponenten”. In addition, the “time until tumour is reduced to a minimum” value in the data set on Adenocarcinom EO 771 was about 7 Tagen. Also, the Kp in [2] (tumour to blood, 6 bis 12 Stunden after intravenous injection, read-out: Bor-Konzentration im Tumor relative to Blut) was 2 to 3. The Tmax in data set [2] (tumour, ip, after i.p. application, read-out: Zeitpunkt der optimalen Anreicherung im Tumorgewebe) stood at 6 h. Moreover, the Wasserlöslichkeit entry in “water solubility” is reported as “ausreichend wasserlöslich”.

As for `C[N+](C)(C)[BH2-]C(=O)O` [N-Trimethyl- B-carboxy-aminoboran, reference compound], the “lokale oder systemische Schäden” value in the data set with Sarkom 180 (surviving animals) is listed as “An keinem der überlebenden Tiere wurden lokale oder systemische Schäden beobachtet”.

`[NH3+][10BH2-]C(=O)O` [Ammoniak- ^10B-carboxyboran, Ammoniak- ^10 B-carboxyboran] returned an LD50 in data set [1] of about 2500 mg/kg. Further, in data set [3], the “therapeutische Ergebnisse” value was “Noch bessere therapeutische Ergebnisse”.

In the case of Natriummonomercaptoundecahydrodecaborat, the “toxicity relative to the compound of the invention” value in [4] was about 5 mal.
